# Data reported in US9169254B2, “Spiroimidazolone derivative” (Chugai Seiyaku Kabushiki Kaisha, priority 2009, dated 2015).
# Counter-ions that a name gives are not always drawn.
# Biological target: T1, human PTH1 receptor (Homo sapiens, UniProt Q03431)
# T1 sequence (Q03431 27-593): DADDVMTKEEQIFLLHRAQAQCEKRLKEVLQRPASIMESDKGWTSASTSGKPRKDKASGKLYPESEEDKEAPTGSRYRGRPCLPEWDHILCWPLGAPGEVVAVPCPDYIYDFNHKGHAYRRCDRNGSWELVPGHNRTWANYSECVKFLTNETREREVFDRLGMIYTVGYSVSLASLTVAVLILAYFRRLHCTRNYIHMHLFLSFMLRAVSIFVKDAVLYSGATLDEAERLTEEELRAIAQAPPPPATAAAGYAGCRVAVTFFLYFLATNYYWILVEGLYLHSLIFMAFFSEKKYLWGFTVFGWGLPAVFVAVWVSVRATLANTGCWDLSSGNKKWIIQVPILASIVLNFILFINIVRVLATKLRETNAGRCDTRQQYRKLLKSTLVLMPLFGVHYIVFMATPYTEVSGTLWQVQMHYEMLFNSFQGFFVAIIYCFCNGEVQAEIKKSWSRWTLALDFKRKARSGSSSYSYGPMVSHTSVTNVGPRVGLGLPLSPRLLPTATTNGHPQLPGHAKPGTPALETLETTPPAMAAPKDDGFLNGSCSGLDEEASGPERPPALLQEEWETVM
# Assay: In vitro cAMP signal activity in HKRK-B7 cells (LLC-PK1 cells overexpressing the human PTH1 receptor)
# Assay type: cell-based
# Settings: HKRK-B7 cells; compound at 1×10^−3 M; […]; 0.1 µM
row,SMILES,cAMP production activity (%)
1,"Cc1cc(C(=O)N2CCNCC2)cc(C)c1/C=C/S(=O)(=O)N1CCC2(CC1)N=C(c1cccc(OC(F)(F)F)c1)NC2=O [Compound 446, 8-{(E)-2-[2,6-dimethyl-4-(piperazine-1-carbonyl)-phenyl]-ethenesulfonyl}-2-(3-trifluoromethoxy-phenyl)-1,3,8-triaza-spiro[4.5]dec-1-en-4-one hydrochloride]",49

# Same assay, conditions: HKRK-B7 cells; compound at 1×10^−3 M; cAMP produced as percentage of that produced by hPTH(1-34) at 100 nM
row,SMILES,cAMP production activity (%)
1,"CC(=O)N(C)c1ccc(C)c(CCS(=O)(=O)N2CCC3(CC2)N=C(c2cccc(OC(F)(F)F)c2)NC3=O)c1 [Compound 265, N-methyl-N-(4-methyl-3-{2-[4-oxo-2-(3-trifluoromethoxy-phenyl)-1,3,8-triaza-spiro[4.5]dec-1-ene-8-sulfonyl]-ethyl}-phenyl)-acetamide]",55
2,"O=C1NC(CCCCCCCCC(F)(F)F)=NC12CCN(S(=O)(=O)/C=C/c1cccc3c1ccn3C[C@H](O)CO)CC2 [Compound 622, 8-{(E)-2-[1-((S)-2,3-Dihydroxy-propyl)-1H-indol-4-yl]-ethenesulfonyl}-2-(9,9,9-trifluoro-nonyl)-1,3,8-triaza-spiro[4.5]dec-1-en-4-one]",134
3,"Cc1cc(N2C(=O)CC[C@H]2CO)ccc1/C=C/S(=O)(=O)N1CCC2(CC1)N=C(c1ccc(F)c(C(F)(F)F)c1)NC2=O [Compound 621, 2-(4-fluoro-3-trifluoromethyl-phenyl)-8-{(E)-2-[4-((S)-2-hydroxymethyl-5-oxo-pyrrolidin-1-yl)-2-methyl-phenyl]-ethenesulfonyl}-1,3,8-triaza-spiro[4.5]dec-1-en-4-one]",80
4,"CC(=O)NCCNC(=O)CNc1ccc(/C=C/S(=O)(=O)N2CCC3(CC2)N=C(C2CCCCC2)NC3=O)c(C(F)(F)F)c1 [Compound 498, N-(2-acetylamino-ethyl)-2-{4-[(E)-2-(2-cyclohexyl-4-oxo-1,3,8-triaza-spiro[4.5]dec-1-ene-8-sulfonyl)-vinyl]-3-trifluoromethyl-phenylamino}-acetamide]",53
5,"CC(=O)N(CCO)c1ccc(CCS(=O)(=O)N2CCC3(CC2)N=C(c2ccc(F)c(C(F)(F)F)c2)NC3=O)c(C)c1 [Compound 721, N-(4-{2-[2-(4-Fluoro-3-trifluoromethyl-phenyl)-4-oxo-1,3,8-triaza-spiro[4.5]dec-1-ene-8-sulfonyl]-ethyl}-3-methyl-phenyl)-N-(2-hydroxy-ethyl)-acetamide]",92
6,"CNc1cc(C)c(/C=C/S(=O)(=O)N2CCC3(CC2)N=C(c2cccc(SC(F)(F)F)c2)NC3=O)c(C)c1 [Compound 1016, 8-[(E)-2-(2,6-Dimethyl-4-methylamino-phenyl)-ethenesulfonyl]-2-(3-trifluoromethylsulfanyl-phenyl)-1,3,8-triaza-spiro[4.5]dec-1-en-4-one]",92
7,"O=C1NC(c2ccc(F)c(C(F)(F)F)c2)=NC12CCN(S(=O)(=O)/C=C/c1cccc3c1ccn3C[C@H](O)CO)CC2 [Compound 643, 8-{(E)-2-[1-((S)-2,3-dihydroxy-propyl)-1H-indol-4-yl]-ethenesulfonyl}-2-(4-fluoro-3-trifluoromethyl-phenyl)-1,3,8-triaza-spiro[4.5]dec-1-en-4-one]",94
8,"Cc1cc(C(=O)N2CCC(C)(O)CC2)cc(C)c1/C=C/S(=O)(=O)N1CCC2(CC1)N=C(c1ccc(Cl)c(OCCCC(F)(F)F)c1)NC2=O [Compound 1227, 2-[4-chloro-3-(4,4,4-trifluoro-butoxy)-phenyl]-8-{(E)-2-[4-(4-hydroxy-4-methyl-piperidine-1-carbonyl)-2,6-dimethyl-phenyl]-ethenesulfonyl}-1,3,8-triaza-spiro[4.5]dec-1-en-4-one]",77
9,"Cc1cc(N(C)C(N)=O)cc(C)c1CCS(=O)(=O)N1CCC2(CC1)N=C(c1cccc(OC(F)(F)C(F)F)c1)NC2=O [Compound 1038, 1-[3,5-Dimethyl-4-(2-{4-oxo-2-[3-(1,1,2,2-tetrafluoro-ethoxy)-phenyl]-1,3,8-triaza-spiro[4.5]dec-1-ene-8-sulfonyl}-ethyl)-phenyl]-1-methyl-urea]",111
10,"CC(C)(C)OC(=O)N1CCCC(C2=NC3(CCN(S(=O)(=O)c4cccc(Cl)c4)CC3)C(=O)N2)C1 (centres unmarked) [Compound 18, 3-[8-(3-chloro-benzenesulfonyl)-4-oxo-1,3,8-triaza-spiro[4.5]dec-1-en-2-yl]-piperidine-1-carboxylic acid tert-butyl ester]",44

# More lines, now with the values ahead:
row,cAMP production activity (%),SMILES
1,77,"Cc1cc(C(=O)N2CCC(C)(O)CC2)cc(C)c1/C=C/S(=O)(=O)N1CCC2(CC1)N=C(c1ccc(OCC(F)(F)C(F)F)c(Cl)c1)NC2=O [Compound 1201, 2-[3-chloro-4-(2,2,3,3-tetrafluoro-propoxy)-phenyl]-8-{(E)-2-[4-(4-hydroxy-4-methyl-piperidine-1-carbonyl)-2,6-dimethyl-phenyl]-ethenesulfonyl}-1,3,8-triaza-spiro[4.5]dec-1-en-4-one]"
2,60,"COc1cc(C2=NC3(CCN(S(=O)(=O)CCc4ccc(C(=O)N(C)C)cc4C)CC3)C(=O)N2)ccn1 [Compound 119, 4-{2-[2-(2-methoxy-pyridin-4-yl)-4-oxo-1,3,8-triaza-spiro[4.5]dec-1-ene-8-sulfonyl]-ethyl}-3,N,N-trimethyl-benzamide]"
3,68,"Cc1cc(NS(C)(=O)=O)cc(C)c1/C=C/S(=O)(=O)N1CCC2(CC1)N=C(c1cccc(OC(F)(F)F)c1)NC2=O [Compound 229, N-(3,5-dimethyl-4-{(E)-2-[4-oxo-2-(3-trifluoromethoxy-phenyl)-1,3,8-triaza-spiro[4.5]dec-1-ene-8-sulfonyl]-vinyl}-phenyl)-methanesulfonamide]"
4,49,Cc1cc2ccc1CCS(=O)(=O)N1CCC3(CC1)N=C(NC3=O)c1cc(cc(C(F)(F)F)c1)OCCCCCOCCN(C)C2=O [Compound 1421]
5,2.9,"CCC[S+]([O-])CCCCCC1=NC2(CCN(S(=O)(=O)/C=C/c3c(C)cc(N(C)C(N)=O)cc3C)CC2)C(=O)N1 (centres unmarked) [Compound 1316, 1-[3,5-Dimethyl-4-((E)-2-{4-oxo-2-[5-(propane-1-sulfinyl)-pentyl]-1,3,8-triaza-spiro[4.5]dec-1-ene-8-sulfonyl}-vinyl)-phenyl]-1-methyl-urea]"
6,159,"Cc1cc(N(C)C(N)=O)cc(C)c1CCS(=O)(=O)N1CCC2(CC1)N=C(c1cccc(SC(F)(F)F)c1)NC2=O [Compound 1306, 1-(3,5-dimethyl-4-{2-[4-oxo-2-(3-trifluoromethylsulfanyl-phenyl)-1,3,8-triaza-spiro[4.5]dec-1-ene-8-sulfonyl]-ethyl}-phenyl)-1-methyl-urea]"
7,20,"Cc1cc(C(=O)N2CCOC2=O)cc(C)c1/C=C/S(=O)(=O)N1CCC2(CC1)N=C(C1CCCCC1)NC2=O [Compound 1007, 2-Cyclohexyl-8-{(E)-2-[2,6-dimethyl-4-(2-oxo-oxazolidine-3-carbonyl)-phenyl]-ethenesulfonyl}-1,3,8-triaza-spiro[4.5]dec-1-en-4-one]"
8,72,"CC(=O)Nc1ccc(CCS(=O)(=O)N2CCC3(CC2)N=C(C2CCC(/C=C/CF)CC2)NC3=O)c(C)c1 (centres unmarked) [Compound 1063, N-[4-(2-{2-[4-((E)-3-fluoro-propenyl)-cyclohexyl]-4-oxo-1,3,8-triaza-spiro[4.5]dec-1-ene-8-sulfonyl}-ethyl)-3-methyl-phenyl]-acetamide]"
9,88,"Cc1cc(C(=O)N2CCC(O)CC2)cc(C)c1CCS(=O)(=O)N1CCC2(CC1)N=C(c1ccc(F)c(C(F)(F)F)c1)NC2=O [Compound 797, 2-(4-fluoro-3-trifluoromethyl-phenyl)-8-{2-[4-(4-hydroxy-piperidine-1-carbonyl)-2,6-dimethyl-phenyl]-ethanesulfonyl}-1,3,8-triaza-spiro[4.5]dec-1-en-4-one]"
10,57,"Cc1cc(C(=O)N2CCN(c3ccc(F)cc3)CC2)ccc1CCS(=O)(=O)N1CCC2(CC1)N=C(c1cccc(C(F)(F)F)c1)NC2=O [Compound 375, 8-(2-{4-[4-(4-fluoro-phenyl)-piperazine-1-carbonyl]-2-methyl-phenyl}-ethanesulfonyl)-2-(3-trifluoromethyl-phenyl)-1,3,8-triaza-spiro[4.5]dec-1-en-4-one]"
11,53,"Cc1cc(N2CCC(=O)NC2=O)cc(C)c1/C=C/S(=O)(=O)N1CCC2(CC1)N=C(C1CCC(C)CC1)NC2=O (centres unmarked) [Compound 587, 1-(3,5-dimethyl-4-{(E)-2-[2-(4-methyl-cyclohexyl)-4-oxo-1,3,8-triaza-spiro[4.5]dec-1-ene-8-sulfonyl]-vinyl}-phenyl)-dihydro-pyrimidine-2,4-dione]"
12,80,"Cc1cc(N(CCO)C(=O)NCCO)cc(C)c1/C=C/S(=O)(=O)N1CCC2(CC1)N=C(c1cccc(OC(F)(F)F)c1)NC2=O [Compound 532, 1-(3,5-dimethyl-4-{(E)-2-[4-oxo-2-(3-trifluoromethoxy-phenyl)-1,3,8-triaza-spiro[4.5]dec-1-ene-8-sulfonyl]-vinyl}-phenyl)-1,3-bis-(2-hydroxy-ethyl)-urea]"
